How the values were obtained:
[1] = target: T1, mouse serotonin 5-HT2C receptor (Mus musculus, UniProt P34968); test: Fura-2 Ca2+ imaging, fraction of responsive HEK/5-HT2C cells, Hill fit; assay type: cell-based
T1 construct: gene Htr2c; recombinant receptor stably expressed in HEK293 (HEK/5-HT2C cells)
T1 sequence (P34968 33-459): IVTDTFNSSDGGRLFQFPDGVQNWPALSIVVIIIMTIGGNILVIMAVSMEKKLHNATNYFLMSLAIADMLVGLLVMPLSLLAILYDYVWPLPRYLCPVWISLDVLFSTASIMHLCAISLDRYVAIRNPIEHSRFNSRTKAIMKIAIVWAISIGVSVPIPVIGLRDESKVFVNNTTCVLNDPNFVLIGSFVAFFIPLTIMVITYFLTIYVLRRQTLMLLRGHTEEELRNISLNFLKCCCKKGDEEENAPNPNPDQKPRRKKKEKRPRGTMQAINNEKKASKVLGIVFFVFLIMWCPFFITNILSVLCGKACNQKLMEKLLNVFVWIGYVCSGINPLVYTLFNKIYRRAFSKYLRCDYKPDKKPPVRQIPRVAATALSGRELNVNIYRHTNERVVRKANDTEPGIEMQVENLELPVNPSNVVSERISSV

[2] = target: T1, mouse serotonin 5-HT2C receptor; test: as above; assay type: cell-based; remark: listed apart in the source

| IC50 [1] [nM] | EC50 [2] [nM] | Structure (SMILES) |
| --- | --- | --- |
| 1200 | – | O=c1cc(N2CCOCC2)oc2c(-c3ccccc3)cccc12 [LY294002] |
| – | 2500 | O=c1cc(N2CCNCC2)oc2c(-c3ccccc3)cccc12 [LY303511] |
